Measurements reported in patent US12121565B2, “Methods of treatment of specific cancers with NLRP3 inhibitors and anti-PD1/PD-L1 antibodies” (Duke University, priority 2019, dated 2024).

Assays:
[1] = system: WM266 human melanoma cell line; test: In vitro treatment of human melanoma cell line followed by Western blot; assay type: cell-based; conditions: with or without TLR4 inhibitor; in a TLR4-dependent manner
Text: FIG. 7A-G. The PD-L1/NLRP3/HSP70 PMN-MDSC adaptive recruitment pathway in human melanoma. (A) Supernatant HSP70 and caspase-1 p20 Western blot analysis following treatment of human WM266 melanoma cells with IFN-γ with or without anti-PD-L1 Ab. Blots are representative of 3 independent experiments. (B) Wnt5A Western blot analysis of HSP70-treated human WM266 melanoma cells with or without TLR4 inhibitor. Blots are representative of 3 independent experiments. (C) HSP70 and caspase-1 p20 Western blot analysis following treatment of human WM266 melanoma cells with ATP in the absence and presence of MCC950. Blots are representative of 2 independent experiments. (D) Cytolytic T cell markers correlated with ITGAM (CD11B), CD33, and NLRP3 gene expression in the melanoma TCGA-SKCM database. (E) RNA-Seq analysis of human melanoma tissue specimens collected before anti-PD-1 Ab therapy and at the time of disease progression on anti-PD-1 Ab therapy. TPM, transcripts per million. (F) Plasma HSP70 ELISA at week 0 and week 12 in patients with advanced melanoma undergoing anti-PD-1 Ab immunotherapy. (G) Change in HSP70 plasma levels following anti-PD-1 Ab immunotherapy in patients with advanced melanoma who were responders (R) or nonresponders (NR). The response was based on week-12 CT imaging. HSP70 changes were normalized to target tumor burden based on week-12 CT imaging. […]

[2] = system: BRAFV600E PTEN−/− melanoma cell line; test: In vitro treatment of melanoma cell line followed by Western blot, qRT-PCR, IP, ASC polymerization or ELISA; assay type: cell-based, mouse
Text: Braf^V600EPten^−/− (male, BPD6 (40)), Braf^V600EPten^−/−-Wnt5a^KD (40), Braf^V600EPten^−/−-CXCL5^KD, Braf^V600EPten^−/−-PDL1^KD, Braf^V600EPten^−/−-NLRP3^KD, OVA-expressing Braf^V600EPten^−/−, BRAF^V600EPTEN^−/−-STAT3^CA, and Braf^V600EPten^−/−-NTC (40) cell lines were generated using shRNA-expressing lentiviral vectors and cultured as previously described (40): shNLRP3 (Sigma, SHCLN-NM_145827), shPDL1 (Sigma, SHCLND-NM_021893), shWnt5a (Sigma, SHCLND-NM_009524), shTLR4 (Sigma, SHCLNG-NM_025817, and pLKO.1-puro empty vector control (NTC) (Sigma, SHC001). Stable cell lines were selected by puromycin resistance (Sigma-Aldrich, P8833). Murine Lewis Lung Carcinoma (LLC) cell line is from ATCC (1704526). All cell lines were tested Mycoplasma-free by Duke University Cell Culture Facility shared services. All Braf^V600EPten^−/− cell lines and the LLC cell line were maintained at 37° C. in DMEM (Invitrogen) with 2 mM L-glutamine, supplemented with 10% fetal bovine serum, 100 units/ml penicillin. Depending on the experiment, cell lines were treated with Wnt5a (100-200 ng/ml, R&D Systems/Bio-techne, 645-WN-010), IFNγ (100 ng/ml, BioAbChem, 42-IFNg), anti-PD-L1 ab (1-2 μg/ml), Hsp70 (1 μM-10 μM, Enzo, ADI-ESP-502-D), Hsp70 inhibitor (ThermoFisher, VER155008), CLI-095 TLR4 inhibitor (3 μM-10 μM, Invivogen, tlrl-cli95), TLR2-IN-C29 TLR2 inhibitor (1 μM-10 μM, Glixx, GLXC-06203), MPLA TLR4 agonist (10 μM, Enzo, ALX-581-205-C100), LPS (Lipopolysaccharide) (10 ng, Sigma-Aldrich, L4391-1MG), ATP (1 mM-5 mM, Invivogen, tlrl-atpl), MCC950 NLRP3 inhibitor (2.5 μM-10 μM, Invivogen, inh-mcc), XAV939 β-catenin inhibitor (0.5-1.0 μM, Sigma-Aldrich, X3004-5MG), 2-Aminopurine PKR inhibitor (1 mM-5 mM, Invivogen, tlrl-apr), Verteporfin YAP inhibitor (0.1 μM-1 μM, R&D Systems/Bio-techne, 530510) or vehicle control either for 24 or 48 hrs prior to in vitro and in vivo experiments. Control siRNA (Santa Cruz, sc-37007). TLR4 siRNA (SantaCruz, sc-40261).
OT-1 CD8 cell activation was performed by incubating isolated splenocytes of OT-1 transgenic mice with IL-2 (100 U/ml) and SIINFEKL peptide (1 μg/ml, New England Peptide, BP10-915) for 3 days followed by magnetic bead CD8 purification according to the manufacturer's instructions (Miltenyi biotec, 130-104-075). Activated OT-1 CD8 cells were incubated with Braf^V600EPten^−/−-OVA cells and treated with anti-PD1 ab (1 μg/ml) for 72 hrs at a tumor cell:CD8^+ T cell ratio of 1:5. In separate experiments, Braf^V600EPten^−/− cells were treated with increasing concentrations of Dacarbazine (10 μmol-400 μmol).
Tumor tissue or cells were homogenized in NP40 lysis buffer (Sigma-Aldrich) supplemented with complete protease inhibitor and phosphatase inhibitor (Roche). Cells were lysed in Laemmli sample buffer after treatment and subjected to SDS-polyacrylamide gel electrophoresis. After transferring onto PVDF membranes (Bio-Rad), monoclonal and polyclonal primary antibodies and appropriate HRP-conjugated secondary antibodies were utilized for blotting. For the immunoprecipitation assays, cells were lysed with TBS buffer (50 mM Tris-HCl (pH 7.4), 150 mM NaCl) containing 0.5% Triton X-100, EDTA-free protease inhibitor cocktail and phosphatase inhibitor cocktail, precleared with protein A/G beads, and then incubated with 1 μg of appropriate antibodies or isotype control IgG on a rotator overnight at 4° C. then incubated with protein A/G-agarose at 4° C. for 1 hour. After 5 washes with TBS buffer, immunoprecipitated complexes were eluted in sample buffer by boiling and subjected to immunoblot analysis. Immunoblots were visualized by chemiluminescence substrate (ThermoFisher) and imaged by a ChemiDoc XRSplus system (BioRad). For the ASC polymerization assay, cells were lysed with TBS buffer containing 0.5% Triton X-100, EDTA-free protease inhibitor cocktail and phosphatase inhibitor cocktail. The lysates were centrifuged at 4,000 g at 4° C. for 15 min. […]

[3] = system: autochthonous BRAFV600E PTEN−/− melanoma model; test: Autochthonous tumor study: tumor growth, Gr-1 IHC, flow cytometry of tumor-infiltrating cells, serial biopsy qRT-PCR; assay type: in vivo, mouse
Description: B6.Cg-Braf^tm1MmcmPten^tm1Hwu Tg(Tyr-cre/ERT2 H-2^b)13Bos/BosJ transgenic mice were subdermally injected with 4-Hydroxytomoxifen (4-HT) (Sigma, H6278-50MG CCF, 38.75 μg/mouse) to induce primary melanoma development at the base of the tail. Mice were randomly assigned to treatment cohorts once tumor volumes reached 64 mm^3 (19, 30, 50). Depending on the experiment, mice were treated with the following agents: CXCR2 inhibitor (AZD5069, AstraZeneca) at 100 mg/kg per os (po) twice daily, NLRP3 inhibitor (MCC950) 10 mg/kg i.p every other day, anti-PD1 ab (BioXCell) or rat IgG2a isotype control (BioXCell) at 200 μg by i.p. injection every 3 days, Dacarbazine (50 mg/kg or 75 mg/kg, Sigma-Aldrich, D2390) by i.p. injection once every other day. Melanoma growth was monitored by orthogonal caliper measurements every 3 days.
Tumors were resected and mechanically disaggregated by a gentleMACS dissociator (Miltenyi), filtered through 70-μm filters and digested with RPMI containing collagenase IV (1 mg/mL, Sigma-Aldrich), hyaluronidase (0.1 mg/mL, Sigma-Aldrich), and deoxyribonuclease (20 U/mL, Sigma-Aldrich) on a shaker at 250 rpm at 37° C. for 1 hour (23). Resected splenic and lymph node tissues were mechanically disaggregated using 1 cc syringe plunger and 40 μm filters followed by treatment with RBC lysis buffer (Sigma-Aldrich).
Paraffin-embedded tissues were processed and stained following standard protocols and imaged with a Zeiss CLSM 700 confocal microscope. The following antibodies were used in immunohistochemistry and immunofluorescence experiments: anti-Wnt5a (1 μg/ml), anti-Ly6G (0.5 μg/ml), anti-CD8a (0.5 μg/ml) and anti-CXCL5 (1 μg/ml). Tissue was permeabilized by incubation in 0.4% Triton-X in TBS for 20 min. Goat anti-rabbit conjugated to Alexa Fluor 564 and goat anti-mouse Alexa 488 were used as secondary antibodies for the appropriate primary antibody. For immunohistochemistry, anti-rat polymers were used as secondary antibodies and Warp Red chromogen detection system (BioCare, WR806S) was used for antigen visualization.
One million cells were stained with 1 μg per million cells of each fluorochrome conjugated antibodies or commercially available dyes according to the standard protocols and analyzed using a FACSCanto II or LSRII (Becton Dickinson). Cells were stained with Fc receptor blocking antibodies followed by a live/dead discriminator (CellTrace Violet, ThermoFisher, C34571), then by conjugated antibodies for 30 min at 4° C. Cell number was calculated by hemocytometer. Flow cytometry data was analyzed using Flowjo software v10.3.
Total RNA was isolated by RNeasy Plus Mini Kit (Qiagen, 74134). […] All data were normalized to Actb expression, and relative gene expression was quantitated based on the 2_DDCt method.

[4] = system: human melanoma tissue specimens; test: RNASeq of human melanoma tissue at baseline and during disease progression; assay type: in vivo; conditions: following disease progression versus baseline
Text: All plasma samples were collected from 17 advanced melanoma patients undergoing anti-PD-1 ab immunotherapy at week 0 and week 12 on an ongoing tissue acquisition protocol investigating checkpoint inhibitor resistance at Duke Cancer Institute (NCT02694965). Three paired tumor specimens obtained at week 0 and at the time of disease progression while undergoing anti-PD-1 ab immunotherapy were collected at Vanderbilt University Medical Center (Institutional Protocol #: 100178). Treatment responses were evaluated based on RECIST (Response Evaluation Criteria in Solid Tumors v1.1).
RNA-seq was performed by Duke Sequencing and Genomic Technologies Shared Resources. A complementary DNA library was prepared via oligo-dT-directed reverse transcription (Ambion) and subjected to deep sequencing on IlluminaHiSeq4000 (50-bp single-read sequencing; Anti-PD-1 resistance Study RNA-seq, accession number: SAMN09878780). RNA-seq data generated here and publicly available RNA-seq data were processed by Duke Center for Genomic and Computational Biology using the TrimGaloretoolkit that uses Cutadapt to trim low-quality bases and Illumina sequencing adapters from the 3′ end of the reads. Only reads that were of 20 nucleotides (nt) or longer after trimming were kept for further analysis. Reads were mapped to the GRCm38v68 version of the mouse genome and transcriptome using the STAR RNA-seq alignment tool. […]

[5] = CXCR2 inhibitor 100 mg/kg po twice daily combined with anti-PD-1 Ab

Molecule: HSP70: recombinant HSP70 (1 μM-10 μM, Enzo, ADI-ESP-502-D)
- Wnt5a upregulation by HSP70 [1]: induced
- receptor dependence of HSP70 stimulation of Wnt5a expression ([2]; pharmacologic inhibitor and shRNA silencing studies): TLR4 dependent
- Wnt5a expression after HSP70 stimulation (Western blot) ([2]; titrated concentrations, in a dose-dependent manner): induced upregulation

Molecule: C[C@@H](Oc1cc(NS(=O)(=O)N2CCC2)nc(SCc2cccc(F)c2F)n1)[C@@H](O)CO [AZD5069]
- CD8+ T cell tumor infiltration [3, 5]: enhanced
- PMN-MDSC recruitment in response to anti-PD-1 Ab therapy [3, 5]: significantly suppressed
- tumor progression [3, 5]: suppressed
- time dependence of impact on tumor volume change rate ([3]; correlating with the period of PMN-MDSC influx into the tumor): more significant at later time points

Molecule: IL-1β: recombinant IL-1β at titrated concentrations
- induction of Wnt5a expression by tumor cells ([2]; titrated concentrations of recombinant IL-1β): no evidence

Molecule: nivolumab: an anti-PD-1 antibody, available from Bristol-Myers Squibb Co
- expression of myeloid markers CXCL1, CD33, ITGAM, CXCR2, S00A8 and S00A9 [4]: elevated expression

B1: rWnt5a: recombinant Wnt5a (100-200 ng/ml, R&D Systems/Bio-techne, 645-WN-010) (protein, UniProt P41221 62-380, looked up)
Protein Wnt-5a: IIGAQPLCSQLAGLSQGQKKLCHLYQDHMQYIGEGAKTGIKECQYQFRHRRWNCSTVDNTSVFGRVMQIGSRETAFTYAVSAAGVVNAMSRACREGELSTCGCSRAARPKDLPRDWLWGGCGDNIDYGYRFAKEFVDARERERIHAKGSYESARILMNLHNNEAGRRTVYNLADVACKCHGVSGSCSLKTCWLQLADFRKVGDALKEKYDSAAAMRLNSRGKLVQVNSRFNSPTTQDLVYIDPSPDYCVRNESTGSLGTQGRLCNKTSEGMDGCELMCCGRGYDQFKTVQTERCHCKFHWCCYVKCKKCTEIVDQFVCK
- diminished CXCL5 expression of Wnt5a-knockdown cell line after addition of rWnt5a ([2]; BRAFV600E PTEN−/− Wnt5aKD cells, qRT-PCR): rescued
- YAP stabilization (Western blot) ([2]; rWnt5a at various time points): induced
- Cxcl2, Cxcl5 and Cxcl1 gene expression (qRT-PCR) ([2]; rWnt5a versus vehicle control): induced
- CXCL5 expression (Western blot) ([2]; rWnt5a, in a YAP-dependent manner): stimulating
